# Assay results published in patent US20260097111A1, “ETHER LIPIDS FOR HYPERACTIVATION OF MAMMALIAN DENDRITIC CELLS” (priority 2022, published 2026).
# Experiments:
# human moDC = assay: IL-1β ELISA, human moDC treated with R848, DGP, MCC950; type: cell-based
# Method: Monocyte Isolation, Storage, and Differentiation into moDC. Human leukapheresis blood products were freshly obtained from AllCells via same day or overnight shipping at 4° C. Miltenyi StraightFrom Leukopak CD14 MicroBead isolation kits were used according to manufacturer instructions to isolate CD14+ monocytes. Briefly, leukopaks ranging in quantity from 5×10^9 to 1×10^10 total nucleated cells were evenly aliquoted into 50 mL conical tubes. Cells were incubated with CD14 microbeads and then loaded on the MultiMACS using the program “Possel2”. After washing out the negative population, CD14+ cells were eluted from the columns and counted. An aliquot of monocytes was used to stain for purity of cells to ensure that isolated live cells were […] CD11c+CD14+ by flow cytometry. […] Vials were placed in CoolCell freezing containers and placed in a −80° C. freezer and stored no longer than 1 week. Frozen cells were transferred for long-term storage to the vapor phase of a liquid nitrogen freezer until use.
# To differentiate monocytes into moDC, vials of cells were taken out of the liquid nitrogen freezer and quickly thawed in a 37° C. water bath. Cells were diluted ten-fold in warmed R10++ media containing 50 units/mL benzonase. R10++ media was composed of RPMI 1640 media containing 10% fetal bovine serum, 50 units/mL penicillin, […] streptomycin, 2 mM L-glutamine, 1 mM sodium pyruvate, […] beta-mercaptoethanol, 10 mM HEPES, and 1% Gibco MEM non-essential amino acids. After gentle mixing by inversion of tubes, cells were incubated at 37° C. for 10 min. Cells were pelleted at 400×g for 5 min and supernatant was aspirated. Cells were resuspended in R10++ media and counted on the MoxiGo by diluting an aliquot in PBS containing a final concentration of 2.5 μg/mL propidium iodide. Cells were plated in T75 culture flasks at 3-6×10^7 cells per flask in a total of 20 mL R10++ media containing a final concentration of 50 ng/mL GM-CSF and 25 ng/mL IL-4. Three days after the start of culture, an additional 10 mL R10++ containing 50 ng/mL GM-CSF and 25 ng/mL IL-4 was added to each flask.
# Six days after start of differentiation. R10++ media containing cells were placed into 50 mL conical tubes. Flasks were washed with an additional 10 mL PBS and also collected. […] Cells were resuspended in R10++ media and counted on the MoxiGo by diluting an aliquot in PBS containing a final concentration of 2.5 μg/mL propidium iodide. Cells were then adjusted to 1×10^6 cells/mL in R10++ media.
# moDC Treatment. Human moDC were plated at 1×10^5 cells/well in 96-well flat-bottom tissue culture plates in R10++ media by adding 100 μL of cells per well. To each well, a 25 μL solution of R10++ containing 400 ng/mL GM-CSF and 200 ng/mL IL-4 was added.
# Lyophilized R848 stocks were prepared as described above and frozen at −80° C. An aliquot of frozen R848 was thawed and further diluted to 11.4 μM in R10++ (4 μg/mL R848). Cell culture conditions receiving R848 treatment had 50 μL added to wells. For wells not receiving R848, 50 μL R10++ was added to wells. Lyophilized MCC950 was prepared as described above and stored at −20° C. MCC950 was further diluted to 40 uM in a prepared R10++ solution containing 11.4 μM R848. Cells receiving R848 and MCC950 treatment had 50 μL added to wells. Final concentrations of R848 and MCC950 in a total 200 μL volume were respectively 2.85 μM and 10 μM.
# A4.44% solution of KP407 dissolved in sterile, distilled water was prepared at a temperature of 4° C. […]
# human moDCs = assay: Cell viability of human moDCs (CellTiter-Glo); type: cell-based; conditions: human moDCs, R848 + lipid with MCC950; FIG. 3A
# Method: After an overnight incubation, cells and culture supernatant were used for downstream readouts. One hundred and fifty microliters of cell supernatant were collected. Viability was measured using the CellTiter-Glo assay (Promega) which measures ATP content from cells. Fifty microliters of CellTiter-Glo reagent were added to 50 μL of cells. Luminescence was quantified on a SpectraMax m5e plate reader using an integration time of 500 milliseconds. Viability data were set relative to control conditions where cells were treated with only R848. To measure IL-1β secretion, the human IL-1β Lumit kit (Promega) was used to assay cell culture supernatant. Culture supernatant samples were incubated with enzyme-linked antibodies in a 384-well plate for 1 hour before addition of luminescent substrate. Samples were measured for luminescence with an integration time of 500 milliseconds. IL-1β concentrations of samples was determined by interpolation from a standard curve using 4-parameter logistic regression analysis. Studies were performed on three different human donor samples, and each biological condition was tested in triplicate. Graphed data represent means from each donor.
# Measurement of Cytokine Secretion and Cell Viability. After an overnight incubation, cells and culture supernatant were used for downstream readouts. One hundred and fifty microliters of cell culture supernatant were collected. Viability was measured using the CellTiter-Glo assay (Promega) which measures ATP content from cells. Fifty microliters of CellTiter-Glo reagent were added to 50 μL of cells. Luminescence was quantified on a SpectraMax m5e plate reader using an integration time of 500 milliseconds. Viability data were set relative to control conditions where cells were treated with only R848. To measure IL-1β secretion, the human IL-1β Lumit kit (Promega) was used. […] Samples were measured for luminescence with an integration time of 500 milliseconds. IL-1β concentrations of samples was determined by interpolation from a standard curve using 4-parameter logistic regression analysis. […]
SMILES,concentration of DGP sufficient in combination with R848 to significantly increase IL-1β secretion (human moDC; donor HD94) [µM],concentration of DGP sufficient in combination with R848 to significantly increase IL-1β secretion (human moDC; donor HD95) [µM],concentration of DGP sufficient in combination with R848 to significantly increase IL-1β secretion (human moDC; donors HD93 and HD96),"IL-1β (human moDC; without addition of R848, DGP 0-82.5 μM, overnight, FIG. 21)",cell viability (human moDCs)
"CCCCCCCCCCCCCCCCCCCCCCOC[C@@H](O)COP(=O)(O)O [Compound 2, 1-docosyl-sn-glycerol-3-phosphate]",20.6,82.5,at least 41.3 uM,less than 100 μg/mL,
"CC(C)(O)c1coc(S(=O)(=O)NC(=O)Nc2c3c(cc4c2CCC4)CCC3)c1 [MCC950, reference compound]",,,,,did not affect cell viability
